From article PMC3947464 (ChemMedChem, 2013)

Experiments:
HL60 cells = experiment: MTT anti-proliferation assay, HL60; assay type: cell-based; conditions: Homo sapiens, HL-60, 48 h, read-out: IC50 tumor cell growth inhibition HL60
K562 cells = experiment: MTT anti-proliferation assay, K562; assay type: cell-based; conditions: Homo sapiens, K562, 48 h, read-out: IC50 tumor cell growth inhibition K562
PC3 cells = experiment: MTT anti-proliferation assay, PC3; assay type: cell-based; conditions: Homo sapiens, PC-3, 48 h, read-out: IC50 tumor cell growth inhibition PC3
U937 cells = experiment: MTT anti-proliferation assay, U937; assay type: cell-based; conditions: Homo sapiens, U-937, 48 h, read-out: IC50 tumor cell growth inhibition U937
MCF7 cells = experiment: MTT anti-proliferation assay, MCF7; assay type: cell-based; conditions: Homo sapiens, MCF7, 48 h, read-out: IC50 tumor cell growth inhibition MCF7
U937 xenograft = experiment: In vivo antitumor assay against U937 xenograft; set-up: species or system athymic nude mice; conditions: 100 mg/kg/d intragastric, 16 days; for mean weight of tumors: negative control 2.66 g
U937 cell line [1] = experiment: Western blot of c-Raf, p-Erk, Erk, p-Akt, Akt in U937; assay type: cell-based, Human; conditions: U937, 1 µM, 24h
U937 cell line [2] = experiment: Western blot of acetylated histone H3, H4, p21 and acetylated tubulin in U937; assay type: cell-based, Human; conditions: U937, 1 µM; for cell permeability and intracellular HDAC inhibition: 6h and 24h, western blot; for acetylated tubulin level, 24h: after 24h
[3] = Body weight and organ toxicity in the U937 xenograft study; assay type: in vivo; conditions: 100 mg/kg/d intragastric, measured every two days
Water solubility = assay type: physicochemical; conditions: compared among the derived molecules

Row | SMILES | IC50 (HL60 cells) [nM] | IC50 (K562 cells) [nM] | IC50 (PC3 cells) [nM] | IC50 (U937 cells) [nM] | IC50 (MCF7 cells) [nM] | inhibitory ratio (tumor weight) (U937 xenograft) [%] | mean weight of tumors (U937 xenograft) [g] | p-Akt level (U937 cell line [1]) | cell permeability and intracellular HDAC inhibition (U937 cell line [2]) | acetylated tubulin level, 24h (U937 cell line [2]) | mice body weight loss [3] | water solubility (Water solubility)
1 | O=C(NO)c1ccc(NC(=O)[C@@H](NC(=O)c2ccc(F)cc2)c2ccccc2)cc1 [Compound D4, (S)-4-fluoro-N-(2-((4-(hydroxycarbamoyl)phenyl)amino)-2-oxo-1-phenylethyl)benzamide] | 4550 ± 210 | 1590 ± 60 | 5880 ± 360 | 1640 ± 80 | 2040 ± 170 |  |  |  |  |  |  | 
2 | CN(C)c1cccc2c(S(=O)(=O)N[C@H](C(=O)Nc3ccc(C(=O)NO)cc3)c3ccccc3)cccc12 [Compound D17, (S)-4-(2-(5-(dimethylamino)naphthalene-1-sulfonamido)-2-phenylacetamido)-N-hydroxybenzamide] | 3660 ± 130 | 700 ± 10 | 3310 ± 160 | 1240 ± 20 | 5340 ± 220 | 53.57 | 1.24 | significantly decreased | cell permeable and can inhibit intracellular and even nuclear HDACs | reduced | No evidence of mice body weight (measured every two days) loss | best water solubility
3 | O=C(NO)c1ccc(NC(=O)[C@@H](NS(=O)(=O)c2cccc3ccccc23)c2ccccc2)cc1 [Compound D5, (S)-N-hydroxy-4-(2-(naphthalene-1-sulfonamido)-2-phenylacetamido)benzamide] | 2880 ± 160 | 930 ± 20 | 10100 ± 570 | 1630 ± 90 | 8660 ± 730 |  |  |  | cell permeable and can inhibit intracellular and even nuclear HDACs | still significant |  | 
4 | O=C(CCCCCCC(=O)Nc1ccccc1)NO [SAHA, Suberoyl anilide hydroxamic acid, reference compound] |  | 1860 ± 70 |  |  |  |  | 2.00 |  |  |  |  | 
5 | O=C(NO)c1ccc(NC(=O)[C@@H](NC(=O)c2ccc3ccccc3c2)c2ccccc2)cc1 [Compound D3, (S)-N-(2-((4-(hydroxycarbamoyl)phenyl)amino)-2-oxo-1-phenylethyl)-2-naphthamide] | 3150 ± 130 | 1190 ± 40 | 3770 ± 270 | 1320 ± 70 | 2920 ± 150 |  |  | significantly decreased | cell permeable and can inhibit intracellular and even nuclear HDACs | still significant |  | 

The next lines start with results.

Row | IC50 (HL60 cells) [nM] | IC50 (K562 cells) [nM] | IC50 (PC3 cells) [nM] | IC50 (U937 cells) [nM] | IC50 (MCF7 cells) [nM] | SMILES | inhibitory ratio (tumor weight) (U937 xenograft) [%] | mean weight of tumors (U937 xenograft) [g] | p-Akt level (U937 cell line [1]) | cell permeability and intracellular HDAC inhibition (U937 cell line [2]) | acetylated tubulin level, 24h (U937 cell line [2]) | mice body weight loss [3] | water solubility (Water solubility)
6 | 1530 ± 40 | 1580 ± 60 | 31600 ± 2330 | 1390 ± 30 | 9710 ± 440 | O=C(NO)c1ccc(NC(=O)[C@@H](NC(=O)c2cccc(Br)c2)c2ccccc2)cc1 [Compound D13, (S)-3-bromo-N-(2-((4-(hydroxycarbamoyl)phenyl)amino)-2-oxo-1-phenylethyl)benzamide] |  |  |  | cell permeable and can inhibit intracellular and even nuclear HDACs | still significant |  | 
7 | 1800 ± 90 | 1930 ± 120 | 3000 ± 150 | 1550 ± 40 | 6280 ± 330 | COc1ccc(C(=O)N[C@H](C(=O)Nc2ccc(C(=O)NO)cc2)c2ccccc2)cc1 [Compound D12, (S)-N-hydroxy-4-(2-(4-methoxybenzamido)-2-phenylacetamido)benzamide] |  |  |  |  |  |  | 
8 | 780 ± 20 | 3160 ± 110 | 20500 ± 1730 | 1710 ± 30 | 8230 ± 320 | COc1ccccc1C(=O)N[C@H](C(=O)Nc1ccc(C(=O)NO)cc1)c1ccccc1 [Compound D11, (S)-N-(2-((4-(hydroxycarbamoyl)phenyl)amino)-2-oxo-1-phenylethyl)-2-methoxybenzamide] |  |  |  |  |  |  | 
9 | 2020 ± 150 | 1470 ± 70 | 5670 ± 350 | 1770 ± 60 | 10800 ± 930 | O=C(NO)c1ccc(NC(=O)[C@@H](NC(=O)c2ccccc2)c2ccccc2)cc1 [Compound D7, (S)-4-(2-benzamido-2-phenylacetamido)-N-hydroxybenzamide] |  |  |  |  |  |  | 
10 | 3830 ± 290 | 1550 ± 50 | 1510 ± 50 | 1310 ± 70 | 5140 ± 430 | COc1ccccc1NC(=O)N[C@H](C(=O)Nc1ccc(C(=O)NO)cc1)c1ccccc1 [Compound D18, (S)-N-hydroxy-4-(2-(3-(2-methoxyphenyl)ureido)-2-phenylacetamido)benzamide] |  |  |  | cell permeable and can inhibit intracellular and even nuclear HDACs | reduced |  | 
